Reference: patent US7858635B2 (priority 2005, dated 2010)
Like-named read-outs stand apart in the source and are kept apart here.

Tests used:
[1] = target: T1, M1 muscarinic receptor (Homo sapiens, UniProt P11229); experiment: Functional mobilization of intracellular calcium (FLIPR, Fluo-3), M1-CHO cells; type: cell-based; settings: for Emax: read-out: M1 Efficacy
T1 construct: expressed in transfected cells; host or cells: CHO cells (M1-CHO, under zeocin and G418 selection)
T1 sequence (P11229 1-460): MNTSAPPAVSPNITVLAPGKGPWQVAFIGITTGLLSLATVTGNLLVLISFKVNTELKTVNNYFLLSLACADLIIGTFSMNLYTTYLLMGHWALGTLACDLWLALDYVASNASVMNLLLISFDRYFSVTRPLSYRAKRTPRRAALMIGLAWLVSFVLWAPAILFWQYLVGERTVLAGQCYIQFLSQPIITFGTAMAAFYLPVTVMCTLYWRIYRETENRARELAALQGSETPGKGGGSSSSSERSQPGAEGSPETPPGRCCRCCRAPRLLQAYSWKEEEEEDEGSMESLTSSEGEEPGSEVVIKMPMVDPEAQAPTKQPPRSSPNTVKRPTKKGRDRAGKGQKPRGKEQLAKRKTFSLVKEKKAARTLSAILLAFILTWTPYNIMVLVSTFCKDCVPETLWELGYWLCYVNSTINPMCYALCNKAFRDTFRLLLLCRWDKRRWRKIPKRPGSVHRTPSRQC
Protocol: (§1) CHO cells expressing muscarinic receptors (M1 to M5) are grown as monolayers in tissue culture flasks at 37° C. in a humidified atmosphere containing 5% CO2 and passaged every 3-5 days. The growth media is Dulbecco's modified eagles medium (DMEM, Gibco Cat#12430-054), containing 25 mM Hepes and supplemented with Fetal Bovine Serum (Hyclone, cat# SH30071.03), 0.1 mM of MEM non-essential amino acids (GIBCO, Cat# 11140-050), 1 mM MEM Sodium Pyruvate (GIBCO Cat# 11360-070) and 100 units/ml of Penicillin G and 100 μg/ml of Streptomycin (GIBCO Cat# 15140-122). The recombinant muscarinic receptor cell lines are grown under antibiotic pressure with media containing 25 μm/ml zeocin and 500 μg/ml G418 (M1-CHO), 4 μg/ml puromycin, 50 μg/ml zeocin and 2.5 μm/ml blasticidin (M2 and M4-CHO) or 50 μg/ml zeocin and 4 μg/ml puromycin (M3 and M5-CHO).
(§2) Cells are harvested at 80-90% confluence using Versene (GIBCO Cat# 15040-066), collected by centrifugation and seeded 18-24 hrs prior to running the calcium assay at a density of 5,000-10,000 cells/well in […], clear-bottomed 384-well plates (BD Biocoat, poly-D-lysine, Cat#356663). The day of the experiment, the cells are washed with a plate washer (Bioteck Instruments, ELX 405) using bath1 buffer (140-mM NaCl, 4.5-mM KCL, 2-mM CaCl2, 1-mM MgCl2, 10-mM Hepes-Na, 10-mM Glucose, pH 7.4, with NaOH) containing 1 mM Probenecid. Next, the calcium dye Fluo-3 (25 μl/well of Fluo-3 μM at 4 μM, Molecular Probes F-1241, in Bath 1 buffer containing 1 mM Probenecid) is added to the 25 μl of Bath 1 remaining in each well after the plate wash and the dye is loaded at 37° C. in the tissue culture incubator for 60-90 min. The fluorescent dye is removed using the plate washer with Bath 1 containing 1 mM Probenecid, leaving 25 μl/well of this solution after the wash. Alternatively, cells can be loaded with the calcium indicator from Molecular Devices (Calcium 3 Assay Reagents, Cat # R7181) adding 5 μl of a 5× solution dye in Bath 1 containing 1 mM Probenecid (10 ml per dye flask cat# R7182 to generate a solution 20×) to 20 μl of the same buffer. After loading for 60 min, the experiment can be run without having to remove the dye.
(§3) Compounds are prepared at a 2× fold concentration in a 96-well plate (round bottom, Costar Corning cat# 3656), by reconstituting the pre-spotted compounds in bath 1 containing 1 mM probenecid. The final concentration DMSO is 0.5%, and the amount of DMSO is normalized across the assay plate. To determine an agonist action of the compounds on muscarinic receptors, the reconstituted compounds are added (25 μl compound/well) to the cell assay plate (containing 25 μl/well) using the multi-channel robotic system of the FLIPR 3 Instrument (Molecular Devices, Sunnyvale, Calif.). To determine a functional inhibitory action of the compounds on muscarinic receptors, the reconstituted compounds are added (25 μl compound/well) to the assay plate and pre-incubated for 15 min prior to adding 25 μl of Carbachol at 3× the EC80 for each muscarinic subtype. Alternatively, the compounds can be co-applied simultaneously with the agonist. In both assay modes, the fluorescence is recorded for 60 sec (excitation wavelength is […] and emission wavelength 540 nm) using the FLIPR 3 instrument.
(§4) The potency, efficacy and selectivity of the muscarinic compounds were evaluated by screening the compound activity across the whole family (M1 to M5 cells). Compounds were also screened for activity on other proteins such as other GPCRs and ion channels to determine selectivity on M4 receptors.

[2] = target: T2, M4 muscarinic receptor (Homo sapiens, UniProt P08173); experiment: Functional mobilization of intracellular calcium (FLIPR, Fluo-3), M4-CHO cells; type: cell-based; settings: for Emax: read-out: M4 Efficacy
T2 construct: expressed in transfected cells; host or cells: CHO cells (M4-CHO, under puromycin, zeocin and blasticidin selection)
T2 sequence (P08173 1-479): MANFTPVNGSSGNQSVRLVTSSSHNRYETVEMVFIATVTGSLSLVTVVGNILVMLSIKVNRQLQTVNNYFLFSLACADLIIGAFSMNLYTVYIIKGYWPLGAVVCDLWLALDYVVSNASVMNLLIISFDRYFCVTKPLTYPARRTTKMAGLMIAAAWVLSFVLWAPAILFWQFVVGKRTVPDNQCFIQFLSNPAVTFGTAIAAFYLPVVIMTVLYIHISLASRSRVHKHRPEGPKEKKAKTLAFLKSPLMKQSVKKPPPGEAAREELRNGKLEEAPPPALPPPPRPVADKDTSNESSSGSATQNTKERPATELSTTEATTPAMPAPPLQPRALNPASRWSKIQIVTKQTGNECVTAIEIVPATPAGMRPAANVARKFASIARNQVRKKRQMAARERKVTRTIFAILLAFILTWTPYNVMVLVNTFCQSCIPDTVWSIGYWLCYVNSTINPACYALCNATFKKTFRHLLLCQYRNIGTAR
Protocol: as §1, §2, §3, §4

[3] = compound nos. 1-454, 100% efficacy is the maximum response obtained with the Carbachol control
[4] = compound nos. 455-509, 100% efficacy is the maximum response obtained with the Carbachol control
[5] = compound nos. 1-454, M1-CHO cells, calcium mobilization
[6] = compound nos. 1-454, M4-CHO cells, calcium mobilization

| Compound | Emax [1, 3] [%] | Emax [2, 3] [%] | M1 Activity [1, 5] | M4 Activity [2, 6] | further results |
| --- | --- | --- | --- | --- | --- |
| COCCOC(=O)N1CCC(CN2CCC3(CC2)C[C@H](NC(C)=O)c2ccccc23)CC1 [compound 412] | < 65 | < 55 |  |  | M1 Activity ([1]; compound nos. 1-454): ++ (activity was measured to be between 0.7 μM and 3.0 μM); M4 Activity ([2]; compound nos. 1-454): + (activity was measured to be greater than or equal to 4.0 μM) |
| CN(C)C(=O)N1CC2(CCN(C3CCN(c4nccnc4C#N)CC3)CC2)c2cc(F)ccc21 [compound 480] |  |  |  |  | Emax [1, 4]: 25 to 100%; M1 Activity ([1]; compounds 455-509): ++ (activity was measured to be between 2.0 μM and 5.0 μM); Emax [2, 4]: 25 to 100%; M4 Activity ([2]; compounds 455-509): ++ (activity was measured to be between 2.0 μM and 5.0 μM) |
| CCc1nsc(N2CCC(N3CCC4(CC3)CN(C(=O)N(C)C)c3ccccc34)CC2)n1 [compound 476] |  |  |  |  | Emax [1, 4]: > 100%; M1 Activity ([1]; compounds 455-509): +++ (activity was measured to be less than or equal to 2.0 μM); Emax [2, 4]: > 100%; M4 Activity ([2]; compounds 455-509): +++ (activity was measured to be less than or equal to 2.0 μM) |
| Fc1ccc2c(c1)C1(CCN(C[C@H]3C[C@H]4C=C[C@H]3C4)CC1)CO2 [compound 376] | 65 to 85 | 55 to 70 |  |  | M1 Activity ([1]; compound nos. 1-454): +++ (activity was measured to be less than or equal to 0.7 μM); M4 Activity ([2]; compound nos. 1-454): + (activity was measured to be greater than or equal to 4.0 μM) |
| CC(=O)N[C@H]1CC2(CCN(CC3CC4CCC3CC4)CC2)c2ccccc21 (stereo partly drawn) [compound 29] | > 85 | > 70 | +++ (activity was measured to be less than or equal to 0.7 μM) | +++ (activity was measured to be less than or equal to 0.1 μM) |  |
| CCOC(=O)N1CCC(CN2CCC3(CC2)C[C@H](NC(C)=O)c2ccccc23)CC1 [compound 250] | 65 to 85 | 55 to 70 | ++ (activity was measured to be between 0.7 μM and 3.0 μM) | + (activity was measured to be greater than or equal to 4.0 μM) |  |
| CCc1nsc(N2CCC(N3CCC4(CC3)C[C@H](N(CC(F)(F)F)C(C)=O)c3ccccc34)CC2)n1 [compound 502] |  |  |  |  | Emax [1, 4]: 25 to 100%; M1 Activity ([1]; compounds 455-509): ++ (activity was measured to be between 2.0 μM and 5.0 μM); Emax [2, 4]: 25 to 100%; M4 Activity ([2]; compounds 455-509): ++ (activity was measured to be between 2.0 μM and 5.0 μM) |
| CCOC(=O)N1CCC(N2CCC3(CC2)CN(C(=O)c2ccncc2)c2ccc(F)cc23)CC1 [compound 260] | 65 to 85 | < 55 | +++ (activity was measured to be less than or equal to 0.7 μM) | + (activity was measured to be greater than or equal to 4.0 μM) |  |
| CC#CCOC(=O)N1CCC(N2CCC3(CC2)CN(C(C)=O)c2ccc(F)cc23)CC1 [compound 102] | 65 to 85 | 55 to 70 | +++ (activity was measured to be less than or equal to 0.7 μM) | ++ (activity was measured to be between 0.1 μM and 4.0 μM) |  |
| Cc1ccc2c(c1)C1(CCN(C3CC4CCC(C4)C3)CC1)CN2 (stereo not drawn) [compound 397] | 65 to 85 | < 55 |  |  | M1 Activity ([1]; compound nos. 1-454): ++ (activity was measured to be between 0.7 μM and 3.0 μM); M4 Activity ([2]; compound nos. 1-454): + (activity was measured to be greater than or equal to 4.0 μM) |
| CCOC(=O)N1C2CCC1CC(N1CCC3(CC1)CN(C(=O)C1CCC1)c1ccc(F)cc13)C2 (stereo not drawn) [compound 179] | > 85 | 55 to 70 | ++ (activity was measured to be between 0.7 μM and 3.0 μM) | + (activity was measured to be greater than or equal to 4.0 μM) |  |
| COc1ccc(OC(=O)N2C3CCC2CC(N2CCC4(CC2)COc2ccc(F)cc24)C3)cc1 (stereo not drawn) [compound 100] |  |  | +++ (activity was measured to be less than or equal to 0.7 μM) | ++ (activity was measured to be between 0.1 μM and 4.0 μM) | Emax [1]: 65 to 85%; Emax [2]: 55 to 70% |
| O=C(O[C@@H]1CCOC1)N1C2CCC1CC(N1CCC3(CC1)COc1ccc(F)cc13)C2 (stereo partly drawn) [compound 338] | < 65 | < 55 | + (activity was measured to be greater than or equal to 3.0 μM) | + (activity was measured to be greater than or equal to 4.0 μM) |  |
| CC(=O)N1CC2(CCN(C3CCCCCC3)CC2)c2cc(F)ccc21 [compound 210] | 65 to 85 | < 55 | ++ (activity was measured to be between 0.7 μM and 3.0 μM) | + (activity was measured to be greater than or equal to 4.0 μM) |  |
| Clc1ccc2c(c1)C1(CCO2)CCN(C[C@@H]2C[C@H]3C=C[C@H]2C3)CC1 [compound 164] | > 85 | > 70 | ++ (activity was measured to be between 0.7 μM and 3.0 μM) | + (activity was measured to be greater than or equal to 4.0 μM) |  |
| Cc1csc(N2CCC(N3CCC4(CCN(C(=O)N(C)C)c5ccccc54)CC3)CC2)n1 [compound 508] |  |  |  |  | Emax [1, 4]: 25 to 100%; M1 Activity ([1]; compounds 455-509): ++ (activity was measured to be between 2.0 μM and 5.0 μM); Emax [2, 4]: 25 to 100%; M4 Activity ([2]; compounds 455-509): ++ (activity was measured to be between 2.0 μM and 5.0 μM) |
| CC(=O)N[C@@H]1CC2(CCN([C@@H]3C[C@@H]4CC[C@@H]3C4)CC2)c2ccccc21 [compound 323] | 65 to 85 | 55 to 70 | ++ (activity was measured to be between 0.7 μM and 3.0 μM) | + (activity was measured to be greater than or equal to 4.0 μM) |  |
| CCOC(=O)N1CCC(N2CCC3(CC2)CN(C(=O)N(CC)CC)c2ccc(F)cc23)CC1 [compound 223] | < 65 | < 55 | + (activity was measured to be greater than or equal to 3.0 μM) | + (activity was measured to be greater than or equal to 4.0 μM) |  |
